PubChem BioAssay (NCI)
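Compound exposure: 48 hours, 5 concentrations, 96-well plates. The concentration for full growth arrest is given as TGI.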

Assays:
Assay in all cases: growth of human tumour cells (NCI), 48 h
SK-MEL-28 melanoma = test system: SK-MEL-28 melanoma
CAKI-1 renal = test system: CAKI-1 renal
OVCAR-3 ovarian = test system: OVCAR-3 ovarian
BT-549 breast = test system: BT-549 breast
CCRF-CEM leukemia = test system: CCRF-CEM leukemia
HCC-2998 colon = test system: HCC-2998 colon
NCI-H460 lung = test system: NCI-H460 lung
SF-268 CNS = test system: SF-268 CNS
MALME-3M melanoma = test system: MALME-3M melanoma
NCI/ADR-RES ovarian = test system: NCI/ADR-RES ovarian
A498 renal = test system: A498 renal
A549 NSCLC = test system: A549 NSCLC
NCI-H23 lung = test system: NCI-H23 lung
MOLT-4 leukemia = test system: MOLT-4 leukemia
SN12C renal = test system: SN12C renal
T-47D breast = test system: T-47D breast
HL-60(TB) leukemia = test system: HL-60(TB) leukemia
HCT-15 colon = test system: HCT-15 colon
SW-620 colon = test system: SW-620 colon
OVCAR-8 ovarian = test system: OVCAR-8 ovarian
MDA-MB-231 breast = test system: MDA-MB-231 breast
HOP-62 NSCLC = test system: HOP-62 NSCLC
OVCAR-5 ovarian = test system: OVCAR-5 ovarian
SK-OV-3 ovarian = test system: SK-OV-3 ovarian
UACC-257 melanoma = test system: UACC-257 melanoma
MDA-MB-435 = test system: MDA-MB-435
HOP-92 NSCLC = test system: HOP-92 NSCLC
MCF7 breast = test system: MCF7 breast
HS 578T breast = test system: HS 578T breast
K-562 leukemia = test system: K-562 leukemia
U251 CNS = test system: U251 CNS
SNB-19 CNS = test system: SNB-19 CNS
DU-145 prostate = test system: DU-145 prostate
KM12 colon = test system: KM12 colon
OVCAR-4 ovarian = test system: OVCAR-4 ovarian
HCT-116 colon = test system: HCT-116 colon
ACHN renal = test system: ACHN renal
SK-MEL-2 melanoma = test system: SK-MEL-2 melanoma
786-0 renal = test system: 786-0 renal
NCI-H226 lung = test system: NCI-H226 lung
MDA-N = test system: MDA-N
NCI-H522 lung = test system: NCI-H522 lung
M14 melanoma = test system: M14 melanoma
UO-31 renal = test system: UO-31 renal
SF-539 CNS = test system: SF-539 CNS
EKVX NSCLC = test system: EKVX NSCLC
HT29 colon = test system: HT29 colon
SK-MEL-5 melanoma = test system: SK-MEL-5 melanoma
RXF 393 renal = test system: RXF 393 renal
TK-10 renal = test system: TK-10 renal
COLO 205 colon = test system: COLO 205 colon
SR leukemia = test system: SR leukemia
UACC-62 melanoma = test system: UACC-62 melanoma
SF-295 CNS = test system: SF-295 CNS
RPMI-8226 leukemia = test system: RPMI-8226 leukemia
LOX IMVI melanoma = test system: LOX IMVI melanoma
IGROV1 ovarian = test system: IGROV1 ovarian
SNB-75 CNS = test system: SNB-75 CNS

COc1ccccc1N1C(=O)/C(=C\c2cc(OC)c(OC)c(OC)c2)SC1c1ccccc1 (stereo not drawn)
TGI (SK-MEL-28 melanoma): > 100 µM
TGI (CAKI-1 renal): > 100 µM
TGI (OVCAR-3 ovarian): > 100 µM
TGI (BT-549 breast): > 100 µM
TGI (CCRF-CEM leukemia): 45.5 µM
TGI (HCC-2998 colon): > 100 µM
TGI (NCI-H460 lung): > 100 µM
TGI (SF-268 CNS): > 100 µM
TGI (MALME-3M melanoma): 81.4 µM
TGI (NCI/ADR-RES ovarian): > 100 µM
TGI (A498 renal): > 100 µM
TGI (A549 NSCLC): > 100 µM
TGI (NCI-H23 lung): > 100 µM
TGI (MOLT-4 leukemia): > 100 µM
TGI (SN12C renal): > 100 µM
TGI (T-47D breast): > 100 µM
TGI (HL-60(TB) leukemia): > 100 µM
TGI (HCT-15 colon): > 100 µM
TGI (SW-620 colon): > 100 µM
TGI (OVCAR-8 ovarian): > 100 µM
TGI (MDA-MB-231 breast): > 100 µM
TGI (HOP-62 NSCLC): > 100 µM
TGI (OVCAR-5 ovarian): > 100 µM
TGI (SK-OV-3 ovarian): > 100 µM
TGI (UACC-257 melanoma): > 100 µM
TGI (MDA-MB-435): 53.5 µM
TGI (HOP-92 NSCLC): > 100 µM
TGI (MCF7 breast): > 100 µM
TGI (HS 578T breast): > 100 µM
TGI (K-562 leukemia): 38.2 µM
TGI (U251 CNS): > 100 µM
TGI (SNB-19 CNS): > 100 µM
TGI (DU-145 prostate): > 100 µM
TGI (KM12 colon): > 100 µM
TGI (OVCAR-4 ovarian): > 100 µM
TGI (HCT-116 colon): > 100 µM
TGI (ACHN renal): > 100 µM
TGI (SK-MEL-2 melanoma): > 100 µM
TGI (786-0 renal): > 100 µM
TGI (NCI-H226 lung): > 100 µM
TGI (MDA-N): 42.5 µM
TGI (NCI-H522 lung): > 100 µM
TGI (M14 melanoma): 91.7 µM
TGI (UO-31 renal): > 100 µM
TGI (SF-539 CNS): > 100 µM
TGI (EKVX NSCLC): > 100 µM
TGI (HT29 colon): > 100 µM
TGI (SK-MEL-5 melanoma): > 100 µM
TGI (RXF 393 renal): > 100 µM
TGI (TK-10 renal): > 100 µM
TGI (COLO 205 colon): > 100 µM
TGI (SR leukemia): 72.7 µM
TGI (UACC-62 melanoma): > 100 µM
TGI (SF-295 CNS): > 100 µM
TGI (RPMI-8226 leukemia): 25.4 µM
TGI (LOX IMVI melanoma): > 100 µM

C/C(=N\O)c1ccc2cc(Br)c3ccccc3c2c1
TGI (SK-MEL-28 melanoma): 42.6 µM
TGI (CAKI-1 renal): > 100 µM
TGI (OVCAR-3 ovarian): 33.3 µM
TGI (BT-549 breast): 64 µM
TGI (CCRF-CEM leukemia): 61.1 µM
TGI (HCC-2998 colon): 29.7 µM
TGI (NCI-H460 lung): 43.2 µM
TGI (IGROV1 ovarian): > 100 µM
TGI (SF-268 CNS): > 100 µM
TGI (MALME-3M melanoma): 35.3 µM
TGI (NCI/ADR-RES ovarian): 47.5 µM
TGI (A498 renal): 35.4 µM
TGI (A549 NSCLC): > 100 µM
TGI (NCI-H23 lung): 44.4 µM
TGI (SN12C renal): 48.3 µM
TGI (T-47D breast): 93.3 µM
TGI (HL-60(TB) leukemia): 44.7 µM
TGI (HCT-15 colon): 34.7 µM
TGI (SW-620 colon): > 100 µM
TGI (OVCAR-8 ovarian): 60.9 µM
TGI (MDA-MB-231 breast): 32.1 µM
TGI (HOP-62 NSCLC): 46.8 µM
TGI (SNB-75 CNS): > 100 µM
TGI (OVCAR-5 ovarian): 25.8 µM
TGI (SK-OV-3 ovarian): > 100 µM
TGI (UACC-257 melanoma): 33.2 µM
TGI (MDA-MB-435): 69.9 µM
TGI (HOP-92 NSCLC): 46.6 µM
TGI (MCF7 breast): 35.2 µM
TGI (HS 578T breast): 88.2 µM
TGI (K-562 leukemia): > 100 µM
TGI (U251 CNS): 28.7 µM
TGI (SNB-19 CNS): > 100 µM
TGI (DU-145 prostate): > 100 µM
TGI (KM12 colon): 32.6 µM
TGI (OVCAR-4 ovarian): > 100 µM
TGI (HCT-116 colon): 25.8 µM
TGI (ACHN renal): > 100 µM
TGI (SK-MEL-2 melanoma): 32 µM
TGI (786-0 renal): 43 µM
TGI (MDA-N): 43.6 µM
TGI (NCI-H522 lung): 33 µM
TGI (M14 melanoma): 41.2 µM
TGI (UO-31 renal): 36.7 µM
TGI (EKVX NSCLC): 45.9 µM
TGI (HT29 colon): 20.5 µM
TGI (SK-MEL-5 melanoma): 32 µM
TGI (RXF 393 renal): 31.9 µM
TGI (TK-10 renal): 39.8 µM
TGI (SR leukemia): > 100 µM
TGI (UACC-62 melanoma): 47.2 µM
TGI (SF-295 CNS): 37.5 µM
TGI (RPMI-8226 leukemia): 50.9 µM
TGI (LOX IMVI melanoma): 32.8 µM

COC(=O)CCCC(=O)NC1=C(Nc2ccc(OC)cc2)C(=O)c2ccccc2C1=O
TGI (SK-MEL-28 melanoma): 44.9 µM
TGI (CAKI-1 renal): > 100 µM
TGI (OVCAR-3 ovarian): 31.3 µM
TGI (BT-549 breast): 35.4 µM
TGI (CCRF-CEM leukemia): 58.2 µM
TGI (HCC-2998 colon): > 100 µM
TGI (NCI-H460 lung): 36.6 µM
TGI (IGROV1 ovarian): 36.8 µM
TGI (SF-268 CNS): > 100 µM
TGI (MALME-3M melanoma): 13.5 µM
TGI (NCI/ADR-RES ovarian): 71.1 µM
TGI (A498 renal): 84.4 µM
TGI (A549 NSCLC): 42.7 µM
TGI (NCI-H23 lung): 51.5 µM
TGI (MOLT-4 leukemia): 60.4 µM
TGI (SN12C renal): 74.2 µM
TGI (T-47D breast): > 100 µM
TGI (HL-60(TB) leukemia): 54.5 µM
TGI (HCT-15 colon): 89 µM
TGI (SW-620 colon): > 100 µM
TGI (OVCAR-8 ovarian): > 100 µM
TGI (MDA-MB-231 breast): 82.9 µM
TGI (SNB-75 CNS): 65.6 µM
TGI (OVCAR-5 ovarian): 33.2 µM
TGI (SK-OV-3 ovarian): 82.6 µM
TGI (UACC-257 melanoma): 36.1 µM
TGI (MDA-MB-435): 32.1 µM
TGI (HOP-92 NSCLC): > 100 µM
TGI (MCF7 breast): 35.4 µM
TGI (HS 578T breast): 57.8 µM
TGI (K-562 leukemia): 70.1 µM
TGI (U251 CNS): 80.9 µM
TGI (SNB-19 CNS): > 100 µM
TGI (DU-145 prostate): 31.7 µM
TGI (KM12 colon): > 100 µM
TGI (OVCAR-4 ovarian): 34.6 µM
TGI (HCT-116 colon): 43.2 µM
TGI (ACHN renal): 91.5 µM
TGI (SK-MEL-2 melanoma): 37.8 µM
TGI (786-0 renal): > 100 µM
TGI (MDA-N): 41.2 µM
TGI (NCI-H522 lung): > 100 µM
TGI (M14 melanoma): 33.7 µM
TGI (UO-31 renal): > 100 µM
TGI (SF-539 CNS): 36.1 µM
TGI (EKVX NSCLC): 51.3 µM
TGI (TK-10 renal): > 100 µM
TGI (COLO 205 colon): > 100 µM
TGI (SR leukemia): > 100 µM
TGI (UACC-62 melanoma): 25.3 µM
TGI (SF-295 CNS): 88.4 µM
TGI (RPMI-8226 leukemia): > 100 µM
TGI (LOX IMVI melanoma): 92.8 µM
